# Measurements reported in PubChem BioAssay AID1919009 (Molecular Pharmacology Branch, DTP, NCI, 2023).
# Test system: K24384-001-R-PDC complex spheroid growth
# Test: Anticancer human tumor K24384-001-R-PDC patient-derived pancreatic adenocarcinoma cell line growth inhibition [AhR]
# Conditions: for IC50: curve of first compound; for viability, T/C: stronger effect = lower value
# How it was run: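 Spheroids combined tumor cells with HUVEC endothelial cells and human MSCs as stroma. AhR antagonists were paired with standard or investigational drugs, each dosed in half-log steps down from near clinical Cmax, or from 10 microM where Cmax was unknown.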
# [1] = second compound 0.1 µM, first compound 0.0316 µM
# [2] = second compound 0.1 µM, first compound 0.1 µM
# [3] = second compound 0.1 µM, first compound 0.316 µM
# [4] = second compound 0.1 µM, first compound 1 µM
# [5] = second compound 0.1 µM, first compound 3.16 µM
# [6] = second compound 0.1 µM, first compound 10 µM
# [7] = second compound 0.316 µM, first compound 0.0316 µM
# [8] = second compound 0.316 µM, first compound 0.1 µM
# [9] = second compound 0.316 µM, first compound 0.316 µM
# [10] = second compound 0.316 µM, first compound 1 µM
# [11] = second compound 0.316 µM, first compound 3.16 µM
# [12] = second compound 0.316 µM, first compound 10 µM
# [13] = second compound 1 µM, first compound 0.0316 µM
# [14] = second compound 1 µM, first compound 0.1 µM
# [15] = second compound 1 µM, first compound 0.316 µM
# [16] = second compound 1 µM, first compound 1 µM
# [17] = second compound 1 µM, first compound 3.16 µM
# [18] = second compound 1 µM, first compound 10 µM
# [19] = second compound 3.16 µM, first compound 0.0316 µM
# [20] = second compound 3.16 µM, first compound 0.1 µM
# [21] = second compound 3.16 µM, first compound 0.316 µM
# [22] = second compound 3.16 µM, first compound 1 µM
# [23] = second compound 3.16 µM, first compound 3.16 µM
# [24] = second compound 3.16 µM, first compound 10 µM
# [25] = second compound 10 µM, first compound 0.0316 µM
# [26] = second compound 10 µM, first compound 0.1 µM
# [27] = second compound 10 µM, first compound 0.316 µM
# [28] = second compound 10 µM, first compound 1 µM
# [29] = second compound 10 µM, first compound 3.16 µM
# [30] = second compound 10 µM, first compound 10 µM
# 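For viability, T/C in this document: percent of DMSO vehicle-treated spheroid viability set as 100%.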
structure (smiles),measurement,setting,value
CC(C)CC(NC(=O)C(Cc1ccccc1)NC(=O)c1cnccn1)B(O)O (stereo not given) + CC(CO)NC(=O)c1cc(-c2ccc(Cl)cc2)nn(-c2cnn(C)c2)c1=O,IC50,second compound 0.1 µM,6.57 nM
same,IC50,second compound 0.316 µM,7.16 nM
same,IC50,second compound 1 µM,6.54 nM
same,IC50,second compound 3.16 µM,5.58 nM
same,IC50,second compound 10 µM,6.03 nM
same,"viability, T/C","second compound 0.1 µM, first compound 0.000949 µM",118%
same,"viability, T/C","second compound 0.1 µM, first compound 0.003 µM",110%
same,"viability, T/C","second compound 0.1 µM, first compound 0.00949 µM",22%
same,"viability, T/C","second compound 0.1 µM, first compound 0.03 µM",0.35%
same,"viability, T/C","second compound 0.1 µM, first compound 0.0949 µM",0.73%
same,"viability, T/C","second compound 0.1 µM, first compound 0.3 µM",0.34%
same,"viability, T/C","second compound 0.316 µM, first compound 0.000949 µM",133%
same,"viability, T/C","second compound 0.316 µM, first compound 0.003 µM",125%
same,"viability, T/C","second compound 0.316 µM, first compound 0.00949 µM",25.6%
same,"viability, T/C","second compound 0.316 µM, first compound 0.03 µM",0.68%
same,"viability, T/C","second compound 0.316 µM, first compound 0.0949 µM",0.25%
same,"viability, T/C","second compound 0.316 µM, first compound 0.3 µM",0.3%
same,"viability, T/C","second compound 1 µM, first compound 0.000949 µM",108%
same,"viability, T/C","second compound 1 µM, first compound 0.003 µM",108%
same,"viability, T/C","second compound 1 µM, first compound 0.00949 µM",22.2%
same,"viability, T/C","second compound 1 µM, first compound 0.03 µM",0.35%
same,"viability, T/C","second compound 1 µM, first compound 0.0949 µM",0.3%
same,"viability, T/C","second compound 1 µM, first compound 0.3 µM",0.35%
same,"viability, T/C","second compound 3.16 µM, first compound 0.000949 µM",83.6%
same,"viability, T/C","second compound 3.16 µM, first compound 0.003 µM",99.2%
same,"viability, T/C","second compound 3.16 µM, first compound 0.00949 µM",14.6%
same,"viability, T/C","second compound 3.16 µM, first compound 0.03 µM",0.34%
same,"viability, T/C","second compound 3.16 µM, first compound 0.0949 µM",0.32%
same,"viability, T/C","second compound 3.16 µM, first compound 0.3 µM",0.31%
same,"viability, T/C","second compound 10 µM, first compound 0.000949 µM",107%
same,"viability, T/C","second compound 10 µM, first compound 0.003 µM",110%
same,"viability, T/C","second compound 10 µM, first compound 0.00949 µM",12%
same,"viability, T/C","second compound 10 µM, first compound 0.03 µM",0.84%
same,"viability, T/C","second compound 10 µM, first compound 0.0949 µM",0.35%
same,"viability, T/C","second compound 10 µM, first compound 0.3 µM",0.9%
Nc1ccccc1NC(=O)c1ccc(CNC(=O)OCc2cccnc2)cc1 + CC(CO)NC(=O)c1cc(-c2ccc(Cl)cc2)nn(-c2cnn(C)c2)c1=O,IC50,second compound 0.1 µM,1960 nM
same,IC50,second compound 0.316 µM,1350 nM
same,IC50,second compound 1 µM,1180 nM
same,IC50,second compound 3.16 µM,987 nM
same,IC50,second compound 10 µM,572 nM
same,"viability, T/C",[1],100%
same,"viability, T/C",[2],101%
same,"viability, T/C",[3],88.2%
same,"viability, T/C",[4],60.9%
same,"viability, T/C",[5],41.8%
same,"viability, T/C",[6],6.28%
same,"viability, T/C",[7],87.6%
same,"viability, T/C",[8],97.7%
same,"viability, T/C",[9],80.6%
same,"viability, T/C",[10],53.2%
same,"viability, T/C",[11],31.8%
same,"viability, T/C",[12],4.37%
same,"viability, T/C",[13],88.2%
same,"viability, T/C",[14],94.8%
same,"viability, T/C",[15],92.1%
same,"viability, T/C",[16],47.4%
same,"viability, T/C",[17],28.8%
same,"viability, T/C",[18],4.21%
same,"viability, T/C",[19],83.7%
same,"viability, T/C",[20],92.4%
same,"viability, T/C",[21],79%
same,"viability, T/C",[22],44.6%
same,"viability, T/C",[23],24.2%
same,"viability, T/C",[24],1.77%
same,"viability, T/C",[25],70.9%
same,"viability, T/C",[26],72.8%
same,"viability, T/C",[27],55.9%
same,"viability, T/C",[28],40.5%
same,"viability, T/C",[29],25.1%
same,"viability, T/C",[30],0.88%
O=C(C=Cc1cccc(S(=O)(=O)Nc2ccccc2)c1)NO + CC(CO)NC(=O)c1cc(-c2ccc(Cl)cc2)nn(-c2cnn(C)c2)c1=O,IC50,second compound 0.1 µM,1580 nM
same,IC50,second compound 0.316 µM,2210 nM
same,IC50,second compound 1 µM,2000 nM
same,IC50,second compound 3.16 µM,1600 nM
same,IC50,second compound 10 µM,1800 nM
same,"viability, T/C",[1],97.1%
same,"viability, T/C",[2],126%
same,"viability, T/C",[3],126%
same,"viability, T/C",[4],65.4%
same,"viability, T/C",[5],28.5%
same,"viability, T/C",[6],2.04%
same,"viability, T/C",[7],119%
same,"viability, T/C",[8],130%
same,"viability, T/C",[9],122%
same,"viability, T/C",[10],96.1%
same,"viability, T/C",[11],29.3%
same,"viability, T/C",[12],1.86%
same,"viability, T/C",[13],123%
same,"viability, T/C",[14],127%
same,"viability, T/C",[15],137%
same,"viability, T/C",[16],81%
same,"viability, T/C",[17],30.5%
same,"viability, T/C",[18],1.91%
same,"viability, T/C",[19],107%
same,"viability, T/C",[20],103%
same,"viability, T/C",[21],136%
same,"viability, T/C",[22],73.3%
same,"viability, T/C",[23],20.5%
same,"viability, T/C",[24],1%
same,"viability, T/C",[25],107%
same,"viability, T/C",[26],117%
same,"viability, T/C",[27],98.9%
same,"viability, T/C",[28],73%
same,"viability, T/C",[29],28.4%
same,"viability, T/C",[30],0.81%
O=C(c1cc(Cc2n[nH]c(=O)c3ccccc23)ccc1F)N1CCN(C(=O)C2CC2)CC1 + CC(CO)NC(=O)c1cc(-c2ccc(Cl)cc2)nn(-c2cnn(C)c2)c1=O,IC50,second compound 0.1 µM,> 10000 nM
same,IC50,second compound 0.316 µM,> 10000 nM
same,IC50,second compound 1 µM,> 10000 nM
same,IC50,second compound 3.16 µM,> 10000 nM
same,IC50,second compound 10 µM,> 10000 nM
same,"viability, T/C",[1],92.9%
same,"viability, T/C",[2],95.3%
same,"viability, T/C",[3],89.2%
same,"viability, T/C",[4],76.7%
same,"viability, T/C",[5],66.8%
same,"viability, T/C",[6],62.2%
same,"viability, T/C",[7],108%
same,"viability, T/C",[8],99.6%
same,"viability, T/C",[9],103%
same,"viability, T/C",[10],82.3%
same,"viability, T/C",[11],73.3%
same,"viability, T/C",[12],70.4%
same,"viability, T/C",[13],99.8%
same,"viability, T/C",[14],104%
same,"viability, T/C",[15],99.2%
same,"viability, T/C",[16],72.3%
same,"viability, T/C",[17],76%
same,"viability, T/C",[18],67.9%
same,"viability, T/C",[19],90.6%
same,"viability, T/C",[20],96.7%
same,"viability, T/C",[21],83.5%
same,"viability, T/C",[22],78.3%
same,"viability, T/C",[23],63.5%
same,"viability, T/C",[24],59.2%
same,"viability, T/C",[25],74.5%
same,"viability, T/C",[26],72.7%
same,"viability, T/C",[27],74%
same,"viability, T/C",[28],71.9%
same,"viability, T/C",[29],65.8%
same,"viability, T/C",[30],69.7%
